Test results as given in patent publication US8022225B2, “Triazole derivative” (Taisho Pharmaceutical Co., Ltd, priority 2004, dated 2011).
pKd: −log10 of the molar value.

These compounds were tested against T1, human Edg-1(S1P1) (Homo sapiens, UniProt P21453) (assay: Cell system binding test: inhibition of [3H]-S1P binding to Edg-1(S1P1) gene transferred HEK-293 cells). Settings: 10 μM compound, [3H]-S1P 10 nM, read-out: Cell system binding test % inhibition (10 μM).
T1 construct: expressed in transfected cells; host or cells: HEK-293
Protocol: Cells (1×10^5 cells/well) obtained as described above were seeded in poly-L-lysine-coated 96-well plates (Corning Incorporated), and then incubated in a 5% carbon dioxide gas incubator for 12 hours at 37° C. with the use of an MEM medium (Invitrogen Corporation) containing 100 U/mL of penicillin, 100 μg/mL of streptomycin, a 1% MEM nonessential amino acid solution, and 10% FCS. […] After the cells were washed twice with the buffer, they were solubilized with 100 μL of Opti Phase Supermix (produced by Perkin-Elmer), and measured for radioactivity by means of Micro Beta (produced by Perkin-Elmer).
Inhibition rate(%)=[1−(A−C)/(B−C)]×100

T1 sequence (P21453 whole entry): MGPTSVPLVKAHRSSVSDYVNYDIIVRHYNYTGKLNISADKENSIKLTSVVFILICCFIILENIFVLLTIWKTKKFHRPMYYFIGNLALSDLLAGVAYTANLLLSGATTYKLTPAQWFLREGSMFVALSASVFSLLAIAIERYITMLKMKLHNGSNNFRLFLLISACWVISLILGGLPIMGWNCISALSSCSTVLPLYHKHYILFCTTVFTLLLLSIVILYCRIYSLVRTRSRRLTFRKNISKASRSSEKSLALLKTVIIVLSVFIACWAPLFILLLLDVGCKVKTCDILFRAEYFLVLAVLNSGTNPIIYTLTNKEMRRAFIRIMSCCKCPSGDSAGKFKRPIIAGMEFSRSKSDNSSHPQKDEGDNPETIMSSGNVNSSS

SMILES	inhibition at 10 µM [%]
CCn1c(OC)nnc1[C@@H](C)NS(=O)(=O)c1ccccc1-c1ccccc1 [Compound 370]	32.3
CCn1c(OC)nnc1[C@@H](C)NS(=O)(=O)c1ncc(C)s1 [Compound 421]	71.3
CCn1c(OC)nnc1[C@@H](C)NS(=O)(=O)c1nc(C)cs1 [Compound 423]	59.2
CCOc1nnc([C@@H](C)NS(=O)(=O)c2cnc(C)s2)n1CC [Compound 438]	82.2

Next, values leading:

inhibition at 10 µM [%]	SMILES
88.5	CCCSc1nnc([C@@H](C)NS(=O)(=O)c2ccc(Cl)cc2)n1CC [Compound 2]
86.1	C=CCSc1nnc([C@@H](C)NS(=O)(=O)c2ccc(Cl)cc2)n1CC [Compound 3]
86.8	C#CCSc1nnc([C@@H](C)NS(=O)(=O)c2ccc(Cl)cc2)n1CC [Compound 4]
97.2	CCn1c(SCc2ccccc2)nnc1[C@@H](C)NS(=O)(=O)c1ccc(Cl)cc1 [Compound 5, N-{(1R)-1-[5-(benzylthio)-4-ethyl-4H-1,2,4-triazol-3-yl]ethyl}-4-chloro-benzenesulfonamide]
94.3	CCn1c(SCc2ccc(-c3ccccc3)cc2)nnc1[C@@H](C)NS(=O)(=O)c1ccc(Cl)cc1 [Compound 6]
88.5	CCn1c(SCc2cccc(C#N)c2)nnc1[C@@H](C)NS(=O)(=O)c1ccc(Cl)cc1 [Compound 7]
83.9	CCn1c(SC2CCCCC2)nnc1[C@@H](C)NS(=O)(=O)c1ccc(Cl)cc1 [Compound 8]
28.2	CCn1c(OC)nnc1[C@@H](C)NS(=O)(=O)c1ccc(NC(=O)NC)c(Cl)c1 [Compound 362]
100	CCn1c(OC)nnc1[C@@H](C)NS(=O)(=O)c1ccc2oc(=O)ccc2c1 [Compound 363]
27	CCn1c(OC)nnc1[C@@H](C)NS(=O)(=O)c1ccc(Cl)c(S(N)(=O)=O)c1 [Compound 364]
73.4	CCn1c(OC)nnc1[C@@H](C)NS(=O)(=O)c1cccnc1 [Compound 373]
67.8	CCOc1nnc([C@@H](C)NS(=O)(=O)c2cccc(O)c2)n1CC [Compound 419]
47.5	CCn1c(OC)nnc1[C@@H](C)NS(=O)(=O)c1ccc(O)cc1 [Compound 422]
58.7	CCn1c(OC)nnc1[C@@H](C)NS(=O)(=O)c1ccc(C)cn1 [Compound 424]
83.6	CCn1c(OC)nnc1[C@@H](C)NS(=O)(=O)c1ccc(C)o1 [Compound 425]
14.7	CCn1c(OC)nnc1C(CCc1ccccc1)NS(=O)(=O)c1ccc(Cl)cc1 (stereo not drawn) [Compound 441]
40.2	CCn1c(OC)nnc1[C@@H](C)NS(=O)(=O)c1ccco1 [Compound 442]

Same assay, conditions: test compound 10^-5 M, [3H]-S1P 10 nM, 1 hour, read-out: Edg-1(S1P1) binding inhibition rate (cell system binding test)

SMILES	inhibition at 10 µM [%]
CCn1c(OC)nnc1[C@@H](CO)NS(=O)(=O)c1ccc(Cl)cc1 [Compound 483]	88.9
CCn1c(OC)nnc1[C@H](NS(=O)(=O)c1ccc(Cl)cc1)[C@H](C)O [Compound 506]	88.6
CCn1c(OC)nnc1[C@@H](C)NS(=O)(=O)c1ccc(OC)cc1 [Compound 508]	100
CCOc1nnc([C@@H](C)NS(=O)(=O)c2ccc(Cl)cc2)n1C [Compound 540]	96.3

The compounds below were run against T1, human Edg-1(S1P1) (assay: Membrane system binding test: inhibition of [33P]-S1P binding to the membrane fraction of Edg-1(S1P1) gene transferred HEK-293 cells). Settings: 10 μM compound; [33P]-S1P 0.1 nM; membrane fraction of Edg-1(S1P1) gene transferred HEK-293 cells; read-out: Membrane system binding test % inhibition (10 μM).
Protocol: The membrane fraction was obtained by treating the cells with a solubilizing buffer (1 mM Tris/HCl, pH 7.2) for 10 minutes on ice, centrifuging the system (1000×g, 5 min) to remove insoluble fractions, and then centrifuging the system (40000×g, 30 min, 4° C.). The resulting membrane fraction was dissolved in a binding buffer (20 mM Tris-HCl, pH 7.4, 100 mM NaCl, 15 mM NaF, 2 mM deoxypyridoxine, 4 mg/mL fatty acid-free BSA), and then [^33P]-S1P (produced by ARC, end concentration 0.1 nM) and a DMSO solution of the test compound (end concentration of the compound: 10^−5 M, end concentration of DMSO: 0.1%) were added, followed by stirring the mixture and subsequently treating it for 1 hour at 30° C. Using a harvester, the membrane fraction was harvested onto unifilter-96GF/C filter (produced by Perkin-Elmer). Then, the filter with the membrane fraction was washed 4 times with the binding buffer, and the filter was dried. To the filter, 25 μL Microscint 0 (produced by Perkin-Elmer) was added, and the assay system was measured for radioactivity by means of Top Count NXT (Packard). Based on the radioactivity, the amount (A) of binding of [^33P]-S1P to the membrane fraction upon addition of the compound was calculated.
The same procedure was performed in the absence of the test compound, and the amount (B) of binding of [^33P]-S1P was calculated. Moreover, the same procedure was performed in the absence of the test compound with the use of HEK-293 cells, to which the Edg-1(S1P1) gene had not been transferred, and the background amount (C) of binding of [^33P]-S1P was calculated.
The Edg-1(S1P1) binding inhibition rate of the compound, calculated from the following equation, is shown in […]

SMILES	inhibition at 10 µM [%]
CCCSc1nnc([C@@H](C)NS(=O)(=O)c2ccc(Cl)cc2)n1CC [Compound 2]	101
C=CCSc1nnc([C@@H](C)NS(=O)(=O)c2ccc(Cl)cc2)n1CC [Compound 3]	89.1
C#CCSc1nnc([C@@H](C)NS(=O)(=O)c2ccc(Cl)cc2)n1CC [Compound 4]	101
CCn1c(SCc2ccccc2)nnc1[C@@H](C)NS(=O)(=O)c1ccc(Cl)cc1 [Compound 5, N-{(1R)-1-[5-(benzylthio)-4-ethyl-4H-1,2,4-triazol-3-yl]ethyl}-4-chloro-benzenesulfonamide]	81.2
CCn1c(SCc2ccc(-c3ccccc3)cc2)nnc1[C@@H](C)NS(=O)(=O)c1ccc(Cl)cc1 [Compound 6]	99
CCn1c(SCc2cccc(C#N)c2)nnc1[C@@H](C)NS(=O)(=O)c1ccc(Cl)cc1 [Compound 7]	74.6
CCn1c(SC2CCCCC2)nnc1[C@@H](C)NS(=O)(=O)c1ccc(Cl)cc1 [Compound 8]	85.6
CCCOc1nnc([C@H](C)NS(=O)(=O)c2ccc(Cl)cc2)n1CC [Compound 184]	44.4
CCn1c(OC)nnc1[C@@H](C)NS(=O)(=O)c1ccc(C)nc1 [Compound 281]	75.5

Same assay, conditions: radioligand binding, membrane fraction; read-out: Kd of binding to human Edg-1(S1P1) gene transferred HEK-293 cell strain membrane fraction

SMILES	pKd
CCCCCCCCCCCCC/C=C\C(O)C(N)COP(=O)(O)O (stereo not drawn) [[^33P]-S1P, reference compound]	9.82

Same assay, conditions: test compound 10^-5 M; [33P]-S1P 0.1 nM; 1 hour at 30° C.; HEK-293 membrane fraction

SMILES	Edg-1(S1P1) binding inhibition rate (membrane system binding test) [%]
CCCOc1nnc([C@@H](Cc2ccc(OC)cc2)NS(=O)(=O)c2ccc(Cl)c(Cl)c2)n1CC [Compound 528]	94.0

Same assay, conditions: test compound 10^-5 M; [33P]-S1P 0.1 nM; 1 hour at 30° C.; HEK-293 membrane fraction; read-out: Edg-1(S1P1) binding inhibition rate (membrane system binding test)

SMILES	inhibition at 10 µM [%]
CCn1c(OC)nnc1[C@@H](Cc1ccccc1)NS(=O)(=O)c1ccc(Cl)c(Cl)c1 [Compound 507]	96.7
CCCOc1nnc([C@@H](Cc2ccc(C)cc2)NS(=O)(=O)c2ccc(Cl)c(Cl)c2)n1CC [Compound 525]	98
CCCOc1nnc([C@@H](Cc2ccc(Cl)c(Cl)c2)NS(=O)(=O)c2ccc(Cl)c(Cl)c2)n1CC [Compound 526]	88.9
CCCOc1nnc([C@@H](Cc2ccc(OC)cc2)NS(=O)(=O)c2ccc(Cl)c(Cl)c2)n1CC [Compound 527]	89.7
CCCOc1nnc([C@@H](Cc2ccccc2)NS(=O)(=O)c2ccc(Cl)c(Cl)c2)n1CC [Compound 529]	100
CCn1c(OCC(F)(F)F)nnc1C(Cc1ccccc1)NS(=O)(=O)c1ccc(Cl)c(Cl)c1 (stereo not drawn) [Compound 530]	97.2
CCn1c(OC2CCC2)nnc1[C@@H](Cc1ccccc1)NS(=O)(=O)c1ccc(Cl)c(Cl)c1 [Compound 531]	100
CCn1c(OC2CCCC2)nnc1[C@@H](Cc1ccccc1)NS(=O)(=O)c1ccc(Cl)c(Cl)c1 [Compound 533]	98.9
CCn1c(OC2CCCCC2)nnc1[C@@H](Cc1ccccc1)NS(=O)(=O)c1ccc(Cl)c(Cl)c1 [Compound 534]	98.3
CCn1c(OCCCOC)nnc1[C@@H](Cc1ccccc1)NS(=O)(=O)c1ccc(Cl)c(Cl)c1 [Compound 535]	102
CCOc1nnc([C@@H](Cc2ccccc2)NS(=O)(=O)c2ccc(Cl)c(Cl)c2)n1CC [Compound 536]	98.4
CCn1c(OCCCN2CCOCC2)nnc1[C@@H](Cc1ccccc1)NS(=O)(=O)c1ccc(Cl)c(Cl)c1 [Compound 538]	103
CCn1c(OCC2CC2)nnc1[C@@H](Cc1ccccc1)NS(=O)(=O)c1ccc(Cl)c(Cl)c1 [Compound 545]	101
CCn1c(OCc2ccccc2)nnc1[C@@H](Cc1ccccc1)NS(=O)(=O)c1ccc(Cl)c(Cl)c1 [Compound 546]	96.9
CCn1c(OC)nnc1[C@@H](Cc1ccc(-c2ccccc2)cc1)NS(=O)(=O)c1ccc(Cl)c(Cl)c1 [Compound 547]	85.4
CCn1c(OC)nnc1[C@@H](Cc1ccc(F)cc1)NS(=O)(=O)c1ccc(Cl)c(Cl)c1 [Compound 548]	99.8
CCn1c(OC)nnc1[C@@H](Cc1ccccc1F)NS(=O)(=O)c1ccc(Cl)c(Cl)c1 [Compound 550]	98.6
CCn1c(OC)nnc1[C@@H](Cc1cccc(F)c1)NS(=O)(=O)c1ccc(Cl)c(Cl)c1 [Compound 551]	101
CCn1c(OC)nnc1[C@@H](Cc1cc(F)cc(F)c1)NS(=O)(=O)c1ccc(Cl)c(Cl)c1 [Compound 552]	97.3
COc1nnc([C@@H](Cc2ccccc2)NS(=O)(=O)c2ccc(Cl)c(Cl)c2)n1C [Compound 553]	94.2
CCCn1c(OC)nnc1[C@@H](Cc1ccccc1)NS(=O)(=O)c1ccc(Cl)c(Cl)c1 [Compound 554]	88

Continued, values first:

inhibition at 10 µM [%]	SMILES
83.5	CCn1c(SC)nnc1C(Cc1ccc(C(F)(F)F)cc1)NS(=O)(=O)c1ccc(Cl)c(Cl)c1 (stereo not drawn) [Compound 518]
82.5	CCn1c(SC)nnc1C(Cc1ccc(C)cc1)NS(=O)(=O)c1ccc(Cl)c(Cl)c1 (stereo not drawn) [Compound 523]
75	CCn1c(SC)nnc1C(Cc1ccc(Cl)c(Cl)c1)NS(=O)(=O)c1ccc(Cl)c(Cl)c1 (stereo not drawn) [Compound 524]
53.8	CCn1c([C@@H](C)NS(=O)(=O)c2ccc(Cl)c(Cl)c2)nnc1S(C)(=O)=O [Compound 532]
101	CCn1c(OC(C)C)nnc1[C@@H](Cc1ccccc1)NS(=O)(=O)c1ccc(Cl)c(Cl)c1 [Compound 537]
99.7	CCn1c(OC)nnc1[C@@H](Cc1ccc(F)c(F)c1)NS(=O)(=O)c1ccc(Cl)c(Cl)c1 [Compound 549]
